Here are results for 71 compounds from patent US9783505B2, “Substituted diaminopyrimidyl compounds, compositions thereof, and methods of treatment therewith” (Signal Pharmaceuticals, LLC, priority 2013, dated 2017).

As usually defined, the IC50 is the concentration needed to halve the response being measured.

Like-named read-outs stand apart in the source and are kept apart here.

The assay deals with T1, His-PKC-theta (Homo sapiens, UniProt Q04759).
T1 construct: His; purchased Invitrogen
As to the kind of experiment: PKC-theta Assay (384-well time resolved fluorescence, IMAP TR-FRET). The following applies: read-out: Act. Level (IC50 in the PKC-theta Assay). It is filed as biochemical. The essentials: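 Enzyme at 142 pM phosphorylated 200 nM Fam-S6 peptide with 10 μM ATP in 50 mM HEPES pH 7.6, 10 mM MgCl2, 1 mM DTT for 2 h at room temperature. Product was detected after overnight incubation with IMAP binding reagent and Tb donor by time-resolved FRET.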

T1 sequence (Q04759 whole entry): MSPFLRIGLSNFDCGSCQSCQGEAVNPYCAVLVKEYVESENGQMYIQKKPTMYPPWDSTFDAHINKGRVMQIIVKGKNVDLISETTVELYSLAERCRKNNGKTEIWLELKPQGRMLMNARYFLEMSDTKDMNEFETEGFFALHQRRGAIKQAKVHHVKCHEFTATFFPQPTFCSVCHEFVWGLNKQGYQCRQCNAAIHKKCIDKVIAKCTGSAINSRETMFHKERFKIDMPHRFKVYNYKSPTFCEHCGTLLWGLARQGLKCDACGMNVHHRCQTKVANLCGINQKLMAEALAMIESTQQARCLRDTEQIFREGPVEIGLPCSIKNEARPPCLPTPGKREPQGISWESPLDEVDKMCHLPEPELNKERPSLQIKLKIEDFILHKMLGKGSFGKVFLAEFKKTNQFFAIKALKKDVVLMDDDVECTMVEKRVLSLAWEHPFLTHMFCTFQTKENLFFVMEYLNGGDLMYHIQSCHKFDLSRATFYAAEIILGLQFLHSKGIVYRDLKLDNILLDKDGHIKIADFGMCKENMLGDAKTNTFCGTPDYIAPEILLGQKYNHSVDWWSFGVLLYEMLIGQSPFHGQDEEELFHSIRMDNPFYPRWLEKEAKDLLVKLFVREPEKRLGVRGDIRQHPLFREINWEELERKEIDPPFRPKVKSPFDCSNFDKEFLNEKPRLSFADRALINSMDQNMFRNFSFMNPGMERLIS

Regarding `CC1(C)[C@@H](O)C[C@H]1Nc1nc(NCCc2ccc(-c3ccc(F)cc3)cc2)ncc1C#N` [Cmpd 120], the IC50 (Table 2) was in the range of 100 to 800 nM.

With `CC1(C)C[C@H](Nc2nc(NCCc3cc(Cl)ccc3S(N)(=O)=O)ncc2C#N)CC[C@@H]1O` [Cmpd 193], the IC50 (Table 2) was 100 to 800 nM.

On to `CC(C)c1ncncc1CNc1ncc(C#N)c(N[C@H]2C[C@@H](CO)C2(C)C)n1` [Cmpd 140], for which the IC50 was 100 to 800 nM.

Turning to `N#Cc1cnc(NCCc2c[nH]c3cc(F)ccc23)nc1N[C@H]1CC[C@@H](O)CC1` [Cmpd 165], the IC50 is 800 to 2000 nM.

For the compound `CC1(C)[C@@H](O)C[C@H]1Nc1nc(NCCc2cccs2)ncc1C#N` [Cmpd 189], the IC50 fell in the range of 100 to 800 nM.

As to `CC1(C)C[C@H](O)CC[C@H]1Nc1nc(NCCc2cccc(Cl)c2)ncc1C#N` [Cmpd 188], under “Table 2”, the IC50 was in the range of 100 to 800 nM.

On to `CC1(C)[C@@H](O)C[C@H]1Nc1nc(NCCc2ccc(S(N)(=O)=O)cc2)ncc1C#N` [Cmpd 113], for which the IC50 (Table 2) fell in the range of 100 to 800 nM.

With `COc1ccc2c(CCNc3ncc(C#N)c(N[C@H]4CC[C@@H](O)CC4)n3)c[nH]c2c1` [Cmpd 164], the IC50 was 800 to 2000 nM.

Turning to `CC(C)(F)c1ncncc1CNc1ncc(C#N)c(N[C@@H]2C[C@H](CO)C2(C)C)n1` [Cmpd 15], the IC50 is under 100 nM.

`CC1(C)C[C@H](Nc2nc(NCCc3ccc(O)cc3)ncc2C#N)CC[C@@H]1O` [Cmpd 29]: the IC50 (Table 2) is under 100 nM.

As to `Cc1nnnn1-c1ccc(CCNc2ncc(C#N)c(N[C@@H]3CCC[C@@](C)(O)C3)n2)cc1` [Cmpd 191], the IC50 (Table 2) lay within 2000 to 10000 nM.

Regarding `CC1(C)[C@@H](O)C[C@H]1Nc1nc(NCc2cncnc2OCCC(F)(F)F)ncc1C#N` [Cmpd 4], the IC50 was under 100 nM.

In the case of `CC(C)c1ncncc1CNc1ncc(C#N)c(N[C@H]2C[C@@H](O)C2(C)C)n1` [Cmpd 119], the IC50 was 100 to 800 nM.

Consider `CC1(C)C[C@H](Nc2nc(NCCc3ncon3)ncc2C#N)CC[C@@H]1O` [Cmpd 191], for which the IC50 is 2000 to 10000 nM.

Turning to `CNC(=O)[C@H]1CC[C@@H](Nc2nc(NCc3cnccc3C(F)(F)F)ncc2C(F)(F)F)CC1` [Cmpd 17], the IC50 was under 100 nM.

`CC(C)(F)c1ncncc1CNc1ncc(C(F)(F)F)c(N[C@@H]2C[C@H](O)C2(C)C)n1` [Cmpd 1]: the IC50 is under 100 nM.

Turning to `CC1(C)C[C@H](Nc2nc(NCCc3ccc(C#N)cc3)ncc2C(F)(F)F)CC[C@@H]1O` [Cmpd 161], the IC50 (Table 2) was 100 to 800 nM.

Take `CC1(C)C[C@H](Nc2nc(NCc3cncnc3-c3ccc(F)cc3)ncc2C(F)(F)F)CC[C@@H]1O` [Cmpd 44]: the IC50 is under 100 nM.

Take `CC1(C)C[C@H](Nc2nc(NCCc3cccc(S(C)(=O)=O)c3)ncc2C#N)CC[C@@H]1O` [Cmpd 173]: the IC50 (Table 2) lay in the range of 100 to 800 nM.

Turning to `CC1(C)C[C@H](Nc2nc(NCc3cncnc3OCCF)ncc2C#N)CC[C@@H]1O` [Cmpd 21], the IC50 is under 100 nM.

Take `CC1(C)C[C@H](Nc2nc(NCCc3ccc(S(C)(=O)=O)cc3)ncc2C#N)CC[C@@H]1O` [Cmpd 63]: for the setting “Table 2”, the half-maximal inhibitory concentration (IC50) fell in the range of 100 to 800 nM.

Regarding `CC(=O)Nc1ccc(CCNc2ncc(C#N)c(N[C@@H]3CC[C@H](O)C(C)(C)C3)n2)cc1` [Cmpd 130], the IC50 (Table 2) was in the range of 100 to 800 nM.

Consider `CC1(C)[C@@H](CO)C[C@@H]1Nc1nc(NCc2cnccc2C(F)(F)F)ncc1C(F)(F)F` [Cmpd 131], for which the IC50 lay within 100 to 800 nM.

In the case of `Cc1cnccc1CCNc1ncc(C#N)c(N[C@H]2CC[C@@H](O)CC2)n1` [Cmpd 152], the concentration for half-maximal inhibition (IC50) fell in the range of 2000 to 10000 nM.

Consider `CC1(C)C[C@H](Nc2nc(NCCc3cccc4cccnc34)ncc2C#N)CC[C@@H]1O` [Cmpd 147], for which the IC50 was in the range of 100 to 800 nM.

Turning to `C[C@@H]1CC[C@H](Nc2nc(NCc3cnccc3C(F)(F)F)ncc2C#N)C[C@H]1O` [Cmpd 87], the IC50 is under 100 nM.

For the compound `Cc1[nH]c2c(F)cc(F)cc2c1CCNc1ncc(C#N)c(N[C@H]2CC[C@@H](O)CC2)n1` [Cmpd 149], the IC50 fell in the range of 2000 to 10000 nM.

Regarding `CC1(C)C[C@H](Nc2nc(NCCc3ccc(CO)cc3)ncc2C#N)CC[C@@H]1O` [Cmpd 57], the IC50 (Table 2) is 100 to 800 nM.

As to `CC1(C)C[C@H](Nc2nc(NCCc3ccc(F)cc3F)ncc2C#N)CC[C@@H]1O` [Cmpd 197], the IC50 (Table 2) lay within 100 to 800 nM.

As for `CC1(C)C[C@H](Nc2nc(NCc3c[n+]([O-])ccc3C(F)(F)F)ncc2C(F)(F)F)CC[C@@H]1O` [Cmpd 40], the IC50 was under 100 nM.

As for `CC1(C)C[C@H](Nc2nc(NCCc3ccc(C(N)=O)cc3)ncc2C#N)CC[C@@H]1O` [Cmpd 154], the IC50 (Table 2) lay within 100 to 800 nM.

With `CC1(C)C[C@H](Nc2nc(NCC(O)c3ccc(O)cc3)ncc2C#N)CC[C@@H]1O` (some centres unmarked) [Cmpd 80], the IC50 (Table 2) is 2000 to 10000 nM.

Consider `CC1(C)C[C@H](Nc2nc(NCCc3ccc(-n4cccn4)c(Cl)c3)ncc2C#N)CC[C@@H]1O` [Cmpd 181], for which the IC50 (Table 2) is under 100 nM.

On to `Cc1cc(C)n(-c2ccc(CCNc3ncc(C#N)c(N[C@@H]4C[C@H](O)C4(C)C)n3)cc2)n1` [Cmpd 121], for which the IC50 (Table 2) was 800 to 2000 nM.

For the compound `CC1(C)[C@@H](CO)C[C@H]1Nc1nc(NCc2cnccc2C(F)(F)F)ncc1C#N` [Cmpd 64], the IC50 is under 100 nM.

For `CC(F)(F)COc1ncncc1CNc1ncc(C(F)(F)F)c(N[C@@H]2CC[C@H](O)C(C)(C)C2)n1` [Cmpd 29], the IC50 is under 100 nM.

As for `CC1(C)C[C@H](Nc2nc(NCCc3ccc(S(=O)(=O)N4CCOCC4)cc3)ncc2C#N)CC[C@@H]1O` [Cmpd 177], the IC50 (Table 2) was 100 to 800 nM.

`CC1(C)[C@@H](Nc2nc(NCc3cnccc3C(F)(F)F)ncc2C(F)(F)F)C[C@@H]1O` [Cmpd 143]: the IC50 is 800 to 2000 nM.

Turning to `CC1(C)[C@@H](O)C[C@H]1Nc1nc(NCCc2ccc(C#N)cc2)ncc1C#N` [Cmpd 38], under “Table 2”, the IC50 was in the range of 100 to 800 nM.

On to `CC1(C)[C@@H](O)C[C@H]1Nc1nc(NCc2cnccc2C(F)(F)F)ncc1C(F)(F)F` [Cmpd 24], for which the IC50 was under 100 nM.

For the compound `COc1ccc(CCNc2ncc(C#N)c(N[C@@H]3CC[C@H](O)C(C)(C)C3)n2)cc1` [Cmpd 94], where the note is “Table 2”, the IC50 is 100 to 800 nM.

On to `CC1(C)C[C@H](Nc2nc(NCCc3ccc(OCC(F)F)cc3)ncc2C#N)CC[C@@H]1O` [Cmpd 170], for which the IC50 (Table 2) was under 100 nM.

For the compound `N#Cc1cnc(NCc2ccccc2Cl)nc1N[C@H]1CC[C@@H](O)CC1` [Cmpd 9], for the setting “Table 2”, the IC50 lay in the range of 100 to 800 nM.

For the compound `Cc1ccccc1CNc1ncc(C#N)c(N[C@H]2CC[C@@H](O)CC2)n1` [Cmpd 19], the IC50 (Table 2) was in the range of 2000 to 10000 nM.

Take `C[C@@H]1CC[C@H](Nc2nc(NCc3cnccc3C(F)(F)F)ncc2C(F)(F)F)C[C@H]1O` [Cmpd 63]: the IC50 was under 100 nM.

With `N#Cc1cnc(NCCc2ccc3ccccc3n2)nc1N[C@H]1CC[C@@H](O)CC1` [Cmpd 150], the IC50 fell in the range of 2000 to 10000 nM.

With `CC1(C)C[C@H](Nc2nc(NCc3cnccc3C(F)(F)F)ncc2C(F)(F)F)CC[C@@H]1O` [Cmpd 18], the IC50 is under 100 nM.

For the compound `CC1(C)C[C@H](Nc2nc(NCCc3ccc(Cl)cc3Cl)ncc2C#N)CC[C@@H]1O` [Cmpd 100], the IC50 (Table 2) is 100 to 800 nM.

With `CN1CCN(c2ccccc2CNc2ncc(C#N)c(N[C@H]3CC[C@@H](O)CC3)n2)CC1` [Cmpd 27], where the note is “Table 2”, the IC50 was 2000 to 10000 nM.

`CC1(C)C[C@H](Nc2nc(NCCc3ccc(C#N)c(F)c3)ncc2C#N)CC[C@@H]1O` [Cmpd 148]: where the note is “Table 2”, the IC50 was in the range of 100 to 800 nM.

As to `N#Cc1cnc(NCCc2cccc(Cl)c2)nc1N[C@H]1CC[C@@H](O)CC1` [Cmpd 68], for the setting “Table 2”, the IC50 was in the range of 100 to 800 nM.

On to `CC1(C)C[C@@H](O)CC[C@@H]1Nc1nc(NCCc2cccc(Cl)c2)ncc1C#N` [Cmpd 187], for which the IC50 (Table 2) is 2000 to 10000 nM.

As to `Cc1nnnn1-c1ccccc1CNc1ncc(C#N)c(N[C@@H]2CC[C@@H](O)C(C)(C)C2)n1` [Cmpd 18], the IC50 (Table 2) lay in the range of 2000 to 10000 nM.

Take `CC1(C)C[C@H](Nc2nc(NCCn3c(=O)[nH]c4ccccc43)ncc2C#N)CC[C@@H]1O` [Cmpd 293]: the IC50 was in the range of 2000 to 10000 nM.

For `CC1(C)C[C@H](Nc2nc(NCCc3ccc(OCCF)cc3)ncc2C#N)CC[C@@H]1O` [Cmpd 171], the IC50 (Table 2) is under 100 nM.

For `COc1ccc2c(CCNc3ncc(C#N)c(N[C@@H]4CC[C@H](O)C(C)(C)C4)n3)c[nH]c2c1` [Cmpd 183], the IC50 was under 100 nM.

Take `Cc1c(CO)cccc1Nc1nc(NCc2cnccc2C(F)(F)F)ncc1C#N` [Cmpd 7]: the IC50 (Table 2) is 100 to 800 nM.

Consider `CCc1ncncc1CNc1ncc(C#N)c(N[C@H]2C[C@H](O)C2(C)C)n1` [Cmpd 142], for which the IC50 was in the range of 800 to 2000 nM.

On to `CC1(C)[C@@H](O)C[C@H]1Nc1nc(NCCc2ccc(C#N)c(F)c2)ncc1C#N` [Cmpd 147], for which the IC50 (Table 2) lay in the range of 100 to 800 nM.

Consider `CC1(C)[C@@H](C(N)=O)C[C@H]1Nc1nc(NCCc2cccc(Cl)c2)ncc1C#N` [Cmpd 165], for which the IC50 (Table 2) is under 100 nM.

For the compound `CC1(C)[C@@H](O)C[C@H]1Nc1nc(NCCc2ccccc2O)ncc1C#N` [Cmpd 108], under “Table 2”, the IC50 was 800 to 2000 nM.

On to `N#Cc1cnc(NCc2ccc(F)cc2F)nc1N[C@H]1CC[C@@H](O)CC1` [Cmpd 20], for which, under “Table 2”, the IC50 lay within 2000 to 10000 nM.

For the compound `CC1(C)[C@H](O)C[C@@H]1Nc1nc(NCc2c[n+]([O-])ccc2C(F)(F)F)ncc1C(F)(F)F` [Cmpd 136], the IC50 was in the range of 100 to 800 nM.

Turning to `CC1(C)[C@@H](N)C[C@H]1Nc1nc(NCCc2cccc(Cl)c2)ncc1C#N` [Cmpd 160], the IC50 (Table 2) fell in the range of 800 to 2000 nM.

Take `CC1(C)C[C@H](Nc2nc(NCCc3ccccc3O)ncc2C#N)CC[C@@H]1O` [Cmpd 67]: the IC50 (Table 2) is 100 to 800 nM.

With `CC1(C)[C@@H](CO)C[C@@H]1Nc1nc(NCCc2cccc(Cl)c2)ncc1C#N` [Cmpd 77], the IC50 (Table 2) is 2000 to 10000 nM.

With `CC1(C)C[C@H](Nc2nc(NCCc3c[nH]c4ccc(F)cc34)ncc2C#N)CC[C@@H]1O` [Cmpd 181], the IC50 lay within 100 to 800 nM.

For `CC1(C)C[C@H](Nc2nc(NCCc3ccc(N4CCCCC4)cc3)ncc2C#N)CC[C@@H]1O` [Cmpd 83], the IC50 (Table 2) was 100 to 800 nM.

Consider `CC1(C)[C@@H](O)C[C@H]1Nc1nc(NCCc2ccc(-n3cccn3)cc2)ncc1C#N` [Cmpd 48], for which the IC50 (Table 2) was under 100 nM.

On to `CC1(C)C[C@H](Nc2nc(NCCc3ccccc3C(F)(F)F)ncc2C#N)CC[C@@H]1O` [Cmpd 97], for which the IC50 (Table 2) lay within 100 to 800 nM.

Turning to `Cc1ccc2c(CCNc3ncc(C#N)c(N[C@@H]4CC[C@H](O)C(C)(C)C4)n3)c[nH]c2c1` [Cmpd 174], the IC50 was in the range of 800 to 2000 nM.
